Tests used:
[1] = target: vasopressin V1 receptor (rat liver plasma membranes) (Rattus norvegicus, UniProt P30560); experiment: Binding Assay to Rat Hepatic V1 Receptors; settings: for IC50: rat hepatic V1
Experimental: Rat liver plasma membranes expressing the vasopressin V1 receptor subtypes are isolated by sucrose density gradient according to the method described by Lesko et al., (1973). These membranes are quickly suspended in 50.0 mM Tris.HCl buffer, pH 7.4, containing 0.2% bovine serum albumin (BSA) and 0.1 mM phenylmethylsulfonylfluoride (PMSF) and kept frozen at -70° C. until used in subsequent binding experiments. For binding experiments, the following is added to the wells of a ninety-six well format microtiter plate: 100 μl of 100.0 mM Tris.HCl buffer containing 10.0 mM MgCl2, 0.2% heat inactivated BSA and a mixture of protease inhibitors: leupeptin, 1.0 mg %; aprotinin, 1.0 mg %; 1,10-phenanthroline,2.0 mg %; trypsin inhibitor, 10.0 mg % and 0.1 mM PMSF, 20.0 μl of [phenylalanyl-3,4,5,-^3 H] vasopressin (S.A. 45.1 Ci/mmole) at 0.8 nM, and the reaction initiated by the addition of 80 μl of tissue membranes containing 20 μg of tissue protein. The plates are kept undisturbed on the bench top at room temperature for 120 min. to reach equilibrium. Non-specific samples are assayed in the presence of 0.1 μM of the unlabeled antagonist phenylalanylvasopressin, added in 20.0 μl volume.
For test compounds, these are solubilized in 50% dimethylsulfoxide (DMSO) and added in 20.0 μl volume to a final incubation volume of 200 μl. Upon completion of binding, the content of each well is filtered off, using a Brandel® cell Harvester (Gaithersburg, Md.). The radioactivity trapped on the filter disk by the ligand-receptor complex is assessed by liquid scintillation counting in a Packard LS Counter, with an efficiency of 65% for tritium.

[2] = target: T1, rat kidney medullary V2 receptors (Rattus norvegicus, UniProt Q00788); experiment: Binding Assay to Rat Kidney Medullary V2 Receptors; settings: for IC50: rat kidney medullary V2
T1 construct: Medullary tissues from rat kidneys are dissected out; from tissue; host or cells: rat kidney medulla membranes
T1 sequence (Q00788 whole entry): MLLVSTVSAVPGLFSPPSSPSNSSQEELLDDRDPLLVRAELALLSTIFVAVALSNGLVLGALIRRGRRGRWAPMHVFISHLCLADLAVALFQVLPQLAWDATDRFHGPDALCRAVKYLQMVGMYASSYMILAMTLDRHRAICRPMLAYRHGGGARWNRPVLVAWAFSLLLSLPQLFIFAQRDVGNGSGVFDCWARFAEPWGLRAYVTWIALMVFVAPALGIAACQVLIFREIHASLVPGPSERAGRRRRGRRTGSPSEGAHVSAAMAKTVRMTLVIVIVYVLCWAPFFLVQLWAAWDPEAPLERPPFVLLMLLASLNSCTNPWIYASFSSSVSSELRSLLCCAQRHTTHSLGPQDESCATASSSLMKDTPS
Experimental: Medullary tissues from rat kidneys are dissected out, cut into small pieces and soaked in a […] sodium chloride solution containing 1.0 mM EDTA with many changes of the liquid phase, until the solution is clear of blood. The tissue is homogenized in a 0.25M sucrose solution containing 1.0 mM EDTA and 0.1 mM PMSF using a Potter-Elvehjem homogenizer with a teflon pestle. The homogenate is filtered through several layers (4 layers) of cheese cloth. The filtrate is rehomogenized using a dounce homogenizer, with a tight fitting pestle. The final homogenate is centrifuged at 1500×g for 15 min. The nuclear pellet is discarded and the supernatant fluid recentrifuged at 40,000×g for 30 min. The resulting pellet formed contains a dark inner part with the exterior, slightly pink. The pink outer part is suspended in a small amount of 50.0 mM Tris.HCl buffer, pH 7.4. The protein content is determined by the Lowry's method (Lowry et al., J. Biol. Chem., 1953). The membrane suspension is stored at -70° C., in 50.0 mM Tris.HCl, containing 0.2% inactivated BSA and 0.1 mM PMSF in aliquots of 1.0 ml containing 10.0 mg protein per ml of suspension until use in subsequent binding experiments.
For binding experiments, the following is added in μl volume to wells of a 96 well format of a microtiter plate: 100.0 μl of 100.0 mM Tris.HCl buffer containing 0.2% heat inactivated BSA, 10.0 mM MgCl2 and a mixture of protease inhibitors: leupeptin, 1.0 mg %; aprotinin, 1.0 mg %; 1,10-phenanthroline, 2.0 mg %; trypsin inhibitor, 10.0 mg % and 0.1 mM PMSF, 20.0 μl of [^3 H] Arginine^8, vasopressin (S.A. 75.0 Ci/mmole) at 0.8 nM and the reaction initiated by the addition of 80.0 μl of tissue membranes (200.0 μg tissue protein). The plates are left undisturbed on the bench top for 120 min to reach equilibrium. Non-specific binding is assessed in the presence of 1.0 μM of unlabeled ligand, added in 20 μl volume. For test compounds, these are solubilized in 50% dimethylsulfoxide (DMSO) and added in 20.0 μl volume to a final incubation volume of 200 μl. Upon completion of binding, the content of each well is filtered off, using a Brandel® cell Harvester (Gaithersburg, Md.). The radioactivity trapped on the filter disk by the ligand-receptor complex is assessed by liquid scintillation counting in a Packard LS Counter, with an efficiency of 65% for tritium.

vasopressin V1 = experiment: Vasopressin V1 Antagonist Activity in Conscious Rats (vasopressin vasopressor response); format: in vivo, rat (spontaneously hypertensive rats); settings: 10 mg/kg i.v.
Experimental: Conscious rats are restrained in a supine position with elastic tape. The area at the base of the tail is locally anesthetized by subcutaneous infiltration with 2% procaine (0.2 ml). Using aseptic technique the ventral caudal tail artery is isolated and a cannula made of PE 10 and 20 (heat-fused) tubing is passed into the lower abdominal aorta. The cannula is secured, heparinized (1000 i.u./cc), sealed and the wound closed with one or two stitches of Dexon 4-0. The caudal vein is also cannulated in the same manner for intravenous drug administration. The duration of the surgery is approximately 5 minutes. Additional local anesthesia (2% procaine or lidocaine) is provided as needed.
The animals are placed in plastic restraining cages in an upright position. The cannula is attached to a Statham P23Db pressure transducer and pulsatile blood pressure is recorded. […] The vasopressin injections are repeated 30, 60, 90, 120, 180, 240 and 300 min. later. Percentage of antagonism by the compound is calculated using the pre-drug vasopressin vasopressor response as 100%.

[3] = 2 h, rat hepatic, read-out: V1, % at concentration in brackets
[4] = rat kidney, read-out: V2, % at concentration in brackets

Chain of vasopressin V1 receptor (rat liver plasma membranes) (P30560 whole entry): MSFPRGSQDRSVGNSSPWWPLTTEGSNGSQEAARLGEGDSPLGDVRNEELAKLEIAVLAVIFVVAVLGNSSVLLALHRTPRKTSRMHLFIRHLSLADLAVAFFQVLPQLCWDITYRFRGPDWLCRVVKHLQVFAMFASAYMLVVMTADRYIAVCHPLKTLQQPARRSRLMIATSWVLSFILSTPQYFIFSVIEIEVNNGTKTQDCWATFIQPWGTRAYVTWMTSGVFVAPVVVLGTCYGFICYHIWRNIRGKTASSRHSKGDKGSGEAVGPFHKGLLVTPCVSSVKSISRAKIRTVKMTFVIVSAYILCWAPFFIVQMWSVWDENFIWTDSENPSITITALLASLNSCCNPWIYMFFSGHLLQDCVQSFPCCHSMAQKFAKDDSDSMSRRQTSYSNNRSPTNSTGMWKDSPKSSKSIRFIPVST

SMILES | IC50 [1] [nM] | IC50 [2] [nM] | other results
Cc1ccccc1C(=O)Nc1ccc(C(=O)N2Cc3cc(Cl)ccc3Oc3ccccc32)cc1 [Example 4] | 1500 | 1700 | 
Cc1ccccc1C(=O)Nc1ccc(C(=O)N2Cc3ccccc3CCc3ccccc32)cc1 [Example 6, N-[4-[(11,12-Dihydrodibenz[b,f]azocin-5-(6H)-yl)-carbonyl]phenyl]-2-methylbenzamide] |  |  | inhibition at 50 µM [1, 3]: 60%; inhibition at 50 µM [2, 4]: 80%
O=C(Nc1ccc(C(=O)N2Cc3ccccc3-c3ccccc32)cc1)c1c(Cl)cccc1Cl [Example 7] | 630 | 77 | 
O=C(Nc1ccc(C(=O)N2Cc3ccccc3-c3ccccc32)cc1)c1ccc(Cl)c(Cl)c1 [Example 8, 3.4-Dichloro-N-[4-[(5(6H)-phenanthridinyl)carbonyl]phenyl]benzamide] | 2800 | 1500 | 
O=C(Nc1ccc(C(=O)N2Cc3ccccc3Cc3ccccc32)cc1)c1cccnc1 [Example 17, N-[4-[(6,11-Dihydro-5H-dibenz[b,e]azepin-5-yl)-carbonyl]phenyl]-3-pyridinecarboxamide] |  |  | inhibition at 50 µM [1, 3]: 65%; inhibition at 50 µM [2, 4]: 52%
O=C(Nc1ccc(C(=O)N2Cc3ccccc3Cc3ccccc32)cc1)c1cccc(C(F)(F)F)c1 [Example 19, N-[4-[(6,11-Dihydro-5H-dibenz[b,e]azepine-5-yl)carbonyl]phenyl]-3-(trifluoromethyl)benzamide] | 1300 | 1200 | 
O=C(Nc1ccc(C(=O)N2Cc3ccccc3Cc3ccccc32)cc1)c1ccc(C(F)(F)F)cc1 [Example 20, N-[4-[(6,11-Dihydro-5H-dibenz[b,e]azepin-5-yl)carbonyl]phenyl]-4-(trifluoromethyl)benzamide] |  |  | inhibition at 10 µM ([1]; 2 h, 10 μM, rat hepatic, read-out: V1, % at concentration in brackets): 17%; inhibition at 10 µM ([2]; 10 μM, rat kidney, read-out: V2, % at concentration in brackets): 48%
Cc1ccccc1C(=O)Nc1ccc(C(=O)N2Cc3cc(S(=O)(=O)N(C)C)ccc3Oc3ccccc32)cc1 [Example 23, N-[4-[[2-[(Dimethylamino)sulfonyl]dibenz[b,f][1,4]oxazepin-10(11H)-yl]carbonyl]phenyl]-2-methylbenzamide] |  |  | inhibition at 50 µM [1, 3]: 19%; inhibition at 50 µM [2, 4]: 47%
O=C(Nc1ccc(C(=O)N2Cc3ccccc3Cc3ccccc32)cc1)c1ccccc1OC(F)(F)F [Example 25, N-[4-[(6,11-Dihydro-5H-dibenz[b,e]azepin-5-yl)carbonyl]phenyl]-2-(trifluoromethoxy)benzamide] | 52 | 560 | 
COc1cc(Cl)ccc1C(=O)Nc1ccc(C(=O)N2Cc3ccccc3Cc3ccccc32)cc1 [Example 165, N-[4-[(6,11-Dihydro-5H-dibenz[b,e]azepin-5-yl)carbonyl]phenyl]-2-methoxy-4-chlorobenzamide] | 490 | 370 | 
O=C(Nc1ccc(C(=O)N2Cc3ccccc3Cc3ccccc32)cc1)c1ccccc1C(F)(F)F [Example 166, N-[4-[(6,11-Dihydro-5H-dibenz(b,e]azepin-5-yl)carbonyl]phenyl]-2-trifluoromethylbenzamide] | 83 | 245 | 
O=C(Nc1ccc(C(=O)N2Cc3ccccc3Sc3ccccc32)cc1)c1ccc(Cl)cc1Cl [Example 449, N-[4-[(Dibenz[b,f][1,4]thiazepin-10(11H)-yl)-carbonyl]phenyl]-2 4-dichlorobenzamide] | 360 | 250 | MAX % Inhibition (vasopressin V1): 45%; Time of max % inhibition (vasopressin V1): 90 min

Second part, led by results:

IC50 [1] [nM] | IC50 [2] [nM] | SMILES | other results
170 | 420 | Cc1ccsc1C(=O)Nc1ccc(C(=O)N2Cc3ccccc3-c3ccccc32)cc1 [Example 3, 3-Methyl-N-[4-[(5(6H)-phenanthridinyl)carbonyl]-phenyl]-2-thiophenecarboxamide] | 
1100 | 280 | O=C(Nc1ccc(C(=O)N2Cc3ccccc3Cc3ccccc32)cc1)c1cc(Cl)ccc1Cl [Example 9, N-[4-[(6,11-Dihydro-5H-dibenz[b,e]azepin-5-yl)carbonyl]phenyl]-2,5-dichlorobenzamide] | 
390 | 180 | Cc1ccc(C)c(C(=O)Nc2ccc(C(=O)N3Cc4ccccc4Cc4ccccc43)cc2)c1 [Example 12, N-[4-[(6,11-Dihydro-5H-dibenz[b,e]azepin-5-yl)carbonyl]phenyl]-2,5-dimethylbenzamide] | 
340 | 300 | Cc1ccc(C(=O)Nc2ccc(C(=O)N3Cc4ccccc4Cc4ccccc43)cc2)c(C)c1 [Example 13, N-[4-[(6,11-Dihydro-5H-dibenz[b,e]azepin-5-yl)carbonyl]phenyl]2,4-dimethylbenzamide] | 
84 | 520 | Cc1ccsc1C(=O)Nc1ccc(C(=O)N2Cc3ccccc3Cc3ccccc32)cc1 [Example 18, N-[4-[(6,11-Dihydro-5H-dibenz[b,e]azepin-5-yl)carbonyl]phenyl]-3-methyl-2-thiophenecarboxamide] | 
280 | 440 | O=C(Nc1ccc(C(=O)N2Cc3ccccc3Cc3ccccc32)cc1)c1ccc(F)cc1F [Example 21, N-[4-[(6,11-Dihydro-5H-dibenz[b,e]azepin-5-yl)carbonyl]phenyl]-2,4-difluorobenzamide] | 
170 | 410 | O=C(Nc1ccc(C(=O)N2Cc3ccccc3Cc3ccccc32)cc1)c1ccccc1 [Example 24, N-[4-[(6,11-Dihydro-5H-dibenz[b,e]azepin-5-yl)carbonyl]phenyl]benzamide] | 
39 | 1100 | Cc1occc1C(=O)Nc1ccc(C(=O)N2Cc3ccccc3Cc3ccccc32)cc1 [Example 119] | 

— patent US5834461A, “Tricyclic benzazepine vasopressin antagonists” (American Cyanamid Company, priority 1997, dated 1998)
